According to patent US20070099259A1, “ELECTROCHEMICAL ASSAY FOR THE IDENTIFICATION OF MICROORGANISMS” (RAPID LABORATORY MICROSYSTEMS INC., priority 2003, published 2007):
Where two headings read alike, the source gives them in different places.

Key:
Test in all cases: Relative respiratory activity with 22 effectors (Example 3)
P. vulgaris ATCC6380 = assay type: cell-based, Proteus vulgaris; conditions: for activity at 20000 µM: effector 20 mM
Text: (§1) In this example, each microorganism is subjected to 22 different effector compounds in addition to control measurements. […] For each microorganism, duplicate measurements were made of 22 different effector compounds. In addition, duplicate measurements were made a control test containing no effector compound. One additional measurement was made of a control solution containing the microorganism with ferricyanide but without effector or DCIP.
(§2) In this example, each normalized data set containing duplicate measurements for each of 22 effector compounds is referenced to the duplicate internal controls to allow batch-to-batch comparison. The obtained signals of charge per unit electrode area for the duplicate control measurements are averaged and set at 100% respiratory cycle activity. […] The data set used to generate pattern recognition plots consists of 5 replicate batches (each batch containing duplicate measurements for each of 22 effector compounds) for each cell culture (10 strains). This is used to generate a 50 (columns)×22 (rows) matrix. The matrix is imported into MATLAB (Version 6.0). Factor analysis is performed using the MATLAB Chemometric Toolbox (Version 2.3) and involves the generation of reduced eigenvectors to determine the optimal number of factors, examination of the resulting residuals plots for randomness, and the generation of scores for the first four principle components.

S. aureus ATCC6538P = assay type: cell-based, Staphylococcus aureus; conditions: for activity at 10000 µM: read-out: relative %-respiratory activity; for activity at 20000 µM: effector 20 mM
Text: as §1, §2

P. aeruginosa = assay type: cell-based, Pseudomonas aeruginosa; conditions: for activity at 10000 µM: read-out: relative %-respiratory activity; for activity at 20000 µM: effector 20 mM
Text: as §1, §2

E. coli JM105 = assay type: cell-based; conditions: for activity at 20000 µM: effector 20 mM
Text: as §1, §2

E. coli Neotype = assay type: cell-based; conditions: for activity at 10000 µM: read-out: relative %-respiratory activity; for activity at 20000 µM: effector 20 mM
Text: as §1, §2

E. coli HB101 = assay type: cell-based; conditions: for activity at 20000 µM: effector 20 mM
Text: as §1, §2

E. coli B = assay type: cell-based; conditions: for activity at 20000 µM: effector 20 mM
Text: as §1, §2

E. faecalis = assay type: cell-based, Enterococcus faecalis; conditions: for activity at 10000 µM: read-out: relative %-respiratory activity; for activity at 20000 µM: effector 20 mM
Text: as §1, §2

E. aerogenes ATCC13048e = assay type: cell-based, Enterobacter aerogenes; conditions: for activity at 10000 µM: read-out: relative %-respiratory activity; for activity at 20000 µM: effector 20 mM
Text: as §1, §2

S. cerevisiae = assay type: cell-based, Saccharomyces cerevisiae; conditions: for activity at 10000 µM: read-out: relative %-respiratory activity; for activity at 20000 µM: effector 20 mM
Text: as §1, §2

[1] = effector 10 mM, 5 μM DCIP, no effector = 100%, n = 20
[2] = effector 10 mM, 5 μM DCIP, no effector = 100%, n = 18
[3] = effector 10 mM, 5 μM DCIP, no effector = 100%, n = 10
[4] = effector 10 mM, 5 μM DCIP, no effector = 100%, n = 26
[5] = Proteus vulgaris, ATCC6380, 5 μM DCIP, no effector = 100%, n = 20
[6] = Staphylococcus aureus, ATCC6538P, 5 μM DCIP, no effector = 100%, n = 20
[7] = Pseudomonas aeruginosa, 5 μM DCIP, no effector = 100%, n = 18
[8] = Escherichia coli, JM105, 5 μM DCIP, no effector = 100%, n = 10
[9] = Escherichia coli, 5 μM DCIP, no effector = 100%, n = 26
[10] = Escherichia coli, HB101, 5 μM DCIP, no effector = 100%, n = 18
[11] = Escherichia coli, 5 μM DCIP, no effector = 100%, n = 10
[12] = Enterococcus faecalis, 5 μM DCIP, no effector = 100%, n = 20
[13] = Klebsiella aerogenes, ATCC13048E, 5 μM DCIP, no effector = 100%, n = 26
[14] = Saccharomyces cerevisiae, 5 μM DCIP, no effector = 100%, n = 10

| SMILES | activity at 20000 µM (P. vulgaris ATCC6380; [5]) | activity at 20000 µM (S. aureus ATCC6538P; [6]) | activity at 20000 µM (P. aeruginosa; [7]) | activity at 20000 µM (E. coli JM105; [8]) | activity at 20000 µM (E. coli Neotype; [9]) | activity at 20000 µM (E. coli HB101; [10]) | activity at 20000 µM (E. coli B; [11]) | activity at 20000 µM (E. faecalis; [12]) | activity at 20000 µM (E. aerogenes ATCC13048e; [13]) | activity at 20000 µM (S. cerevisiae; [14]) | other results |
| --- | --- | --- | --- | --- | --- | --- | --- | --- | --- | --- | --- |
| O=CO [Formic acid] | – | – | – | – | – | – | – | – | – | – | activity at 10000 µM (P. vulgaris ATCC6380; Proteus vulgaris, ATCC6380, read-out: relative %-respiratory activity): 222%; activity at 10000 µM (S. aureus ATCC6538P; Staphylococcus aureus, ATCC6538P): 298%; activity at 10000 µM (P. aeruginosa; Pseudomonas aeruginosa): 120%; activity at 10000 µM (E. coli JM105; Escherichia coli, JM105, read-out: relative %-respiratory activity): 136%; activity at 10000 µM (E. coli Neotype; Escherichia coli): 114%; activity at 10000 µM (E. coli HB101; Escherichia coli, HB101, read-out: relative %-respiratory activity): 163%; activity at 10000 µM (E. coli B; Escherichia coli, read-out: relative %-respiratory activity): 132%; activity at 10000 µM (E. faecalis; Enterococcus faecalis): 157%; activity at 10000 µM (E. aerogenes ATCC13048e; Klebsiella aerogenes, ATCC13048E): 124%; activity at 10000 µM (S. cerevisiae; Saccharomyces cerevisiae): 132% |
| O=C(O)CCC(=O)C(=O)O [Alpha-ketoglutarate] | – | – | – | – | – | – | – | – | – | – | relative %-respiratory activity (P. vulgaris ATCC6380; [1]): 201%; relative %-respiratory activity (S. aureus ATCC6538P; [1]): 115%; relative %-respiratory activity (P. aeruginosa; [2]): 97%; relative %-respiratory activity (E. coli JM105; [3]): 142%; relative %-respiratory activity (E. coli Neotype; [4]): 100%; relative %-respiratory activity (E. coli HB101; [2]): 116%; relative %-respiratory activity (E. coli B; [3]): 130%; relative %-respiratory activity (E. faecalis; [1]): 109%; relative %-respiratory activity (E. aerogenes ATCC13048e; [4]): 102%; relative %-respiratory activity (S. cerevisiae; [3]): 124% |
| O=C(O)CC(O)(CC(=O)O)C(=O)O [Citric acid] | 142% | 83% | 87% | 113% | 158% | 137% | 161% | 117% | 163% | 103% | – |
| NCCC[C@H](N)C(=O)O [L-ornithine] | – | – | – | – | – | – | – | – | – | – | activity at 5000 µM (P. vulgaris ATCC6380; Proteus vulgaris, ATCC6380, effector 5 mM, 5 μM DCIP, no effector = 100%, n = 20): 151%; activity at 5000 µM (S. aureus ATCC6538P; Staphylococcus aureus, ATCC6538P, effector 5 mM, 5 μM DCIP, no effector = 100%, n = 20): 154%; activity at 5000 µM (P. aeruginosa; Pseudomonas aeruginosa, effector 5 mM, 5 μM DCIP, no effector = 100%, n = 18): 148%; activity at 5000 µM (E. coli JM105; Escherichia coli, JM105, effector 5 mM, 5 μM DCIP, no effector = 100%, n = 10): 165%; activity at 5000 µM (E. coli Neotype; Escherichia coli, effector 5 mM, 5 μM DCIP, no effector = 100%, n = 26): 134%; activity at 5000 µM (E. coli HB101; Escherichia coli, HB101, effector 5 mM, 5 μM DCIP, no effector = 100%, n = 18): 114%; activity at 5000 µM (E. coli B; Escherichia coli, effector 5 mM, 5 μM DCIP, no effector = 100%, n = 10): 135%; activity at 5000 µM (E. faecalis; Enterococcus faecalis, effector 5 mM, 5 μM DCIP, no effector = 100%, n = 20): 138%; activity at 5000 µM (E. aerogenes ATCC13048e; Klebsiella aerogenes, ATCC13048E, effector 5 mM, 5 μM DCIP, no effector = 100%, n = 26): 142%; activity at 5000 µM (S. cerevisiae; Saccharomyces cerevisiae, effector 5 mM, 5 μM DCIP, no effector = 100%, n = 10): 137% |
| O=C[C@H](O)[C@@H](O)[C@H](O)CO [D-xylose] | 178% | 128% | 113% | 134% | 110% | 110% | 102% | 128% | 149% | 116% | – |
| OC[C@H]1O[C@@H](O[C@H]2[C@H](O)[C@@H](O)C(O)O[C@@H]2CO)[C@H](O)[C@@H](O)[C@H]1O (stereo partly drawn) [D-lactose] | 162% | 138% | 108% | 115% | 150% | 192% | 164% | 123% | 268% | 126% | – |
| O=P(O)(O)OC(CO)CO [Beta-glycerophosphate] | – | – | – | – | – | – | – | – | – | – | relative %-respiratory activity (P. vulgaris ATCC6380; [1]): 136%; relative %-respiratory activity (S. aureus ATCC6538P; [1]): 114%; relative %-respiratory activity (P. aeruginosa; [2]): 114%; relative %-respiratory activity (E. coli JM105; [3]): 121%; relative %-respiratory activity (E. coli Neotype; [4]): 108%; relative %-respiratory activity (E. coli HB101; [2]): 110%; relative %-respiratory activity (E. faecalis; [1]): 120%; relative %-respiratory activity (E. aerogenes ATCC13048e; [4]): 131%; relative %-respiratory activity (S. cerevisiae; [3]): 105% |
| O=C[C@H](O)[C@@H](O)[C@@H](O)[C@H](O)CO [D-galactose] | 341% | 195% | 130% | 173% | 155% | 153% | 165% | 200% | 334% | 143% | – |
| O=C(CO)[C@@H](O)[C@H](O)[C@H](O)CO [D-fructose] | 183% | 289% | 136% | 202% | 125% | 202% | 147% | 463% | 275% | 152% | – |
| O=C(O)CC(=O)O [Malonic acid] | – | – | – | – | – | – | – | – | – | – | activity at 10000 µM (P. vulgaris ATCC6380; Proteus vulgaris, ATCC6380, effector 10 mM, 5 μM DCIP, no effector = 100%, n = 20, read-out: relative %-respiratory activity): 125%; activity at 10000 µM (S. aureus ATCC6538P; Staphylococcus aureus, ATCC6538P, effector 10 mM, 5 μM DCIP, no effector = 100%, n = 20): 117%; activity at 10000 µM (P. aeruginosa; Pseudomonas aeruginosa, effector 10 mM, 5 μM DCIP, no effector = 100%, n = 18): 125%; activity at 10000 µM (E. coli JM105; Escherichia coli, JM105, effector 10 mM, 5 μM DCIP, no effector = 100%, n = 10, read-out: relative %-respiratory activity): 160%; activity at 10000 µM (E. coli Neotype; Escherichia coli, effector 10 mM, 5 μM DCIP, no effector = 100%, n = 26): 141%; activity at 10000 µM (E. coli HB101; Escherichia coli, HB101, effector 10 mM, 5 μM DCIP, no effector = 100%, n = 18, read-out: relative %-respiratory activity): 124%; activity at 10000 µM (E. faecalis; Enterococcus faecalis, effector 10 mM, 5 μM DCIP, no effector = 100%, n = 20): 146%; activity at 10000 µM (E. aerogenes ATCC13048e; Klebsiella aerogenes, ATCC13048E, effector 10 mM, 5 μM DCIP, no effector = 100%, n = 26): 156%; activity at 10000 µM (S. cerevisiae; Saccharomyces cerevisiae, effector 10 mM, 5 μM DCIP, no effector = 100%, n = 10): 110% |
